Measured values reported in ChEMBL document CHEMBL1153157, “Discovery of benzimidazole-diamide finger loop (Thumb Pocket I) allosteric inhibitors of HCV NS5B polymerase: Implementing parallel synthesis for rapid linker optimization” (Bioorg Med Chem Lett, 2010).
Converted amounts (≈) assume the structure as drawn. The source made the active and inactive calls. The rule behind the calls is not given here.

How the values were obtained:
Hepatitis C virus [1] = assay: Inhibition of N-terminal hexahistidine tagged HCV 1b NS5B polymerase expressed in baculovirus infected Sf21 cells after 90 mins by SPA; parameters: species or system Hepatitis C virus subtype 1b; conditions: Sf21, 1.5 h
Hepatitis C virus [2] = assay: Antiviral activity against Hepatitis C virus subtype 1b by cell-based replicon assay; assay type: functional, organism-based, Hepacivirus hominis; conditions: genotype 1b
Enterovirus C = assay: Inhibition of Poliovirus RNA dependent RNA polymerase expressed in Escherichia coli BL21 (DE3) up to 200 uM after 90 mins by SPA
Bos taurus = organism: Bos taurus; assay: Inhibition of calf thymus DNA-dependent RNA polymerase up to 200 uM after 120 mins
[3] = Lipophilicity, log D at pH 7.4; assay type: physicochemical; conditions: buffer
[4] = Aqueous solubility at pH 7.2; assay type: physicochemical; conditions: buffer
[5] = (§1) Half life in human liver microsomes at 10 uM; assay type: ADME, Microsome; conditions: liver microsomes
Cytochrome P450 1A2 = molecular target: T1, Cytochrome P450 1A2 (Homo sapiens, UniProt P05177); assay: Inhibition of human liver CYP1A2; assay type: ADME
T1 sequence (P05177 whole entry): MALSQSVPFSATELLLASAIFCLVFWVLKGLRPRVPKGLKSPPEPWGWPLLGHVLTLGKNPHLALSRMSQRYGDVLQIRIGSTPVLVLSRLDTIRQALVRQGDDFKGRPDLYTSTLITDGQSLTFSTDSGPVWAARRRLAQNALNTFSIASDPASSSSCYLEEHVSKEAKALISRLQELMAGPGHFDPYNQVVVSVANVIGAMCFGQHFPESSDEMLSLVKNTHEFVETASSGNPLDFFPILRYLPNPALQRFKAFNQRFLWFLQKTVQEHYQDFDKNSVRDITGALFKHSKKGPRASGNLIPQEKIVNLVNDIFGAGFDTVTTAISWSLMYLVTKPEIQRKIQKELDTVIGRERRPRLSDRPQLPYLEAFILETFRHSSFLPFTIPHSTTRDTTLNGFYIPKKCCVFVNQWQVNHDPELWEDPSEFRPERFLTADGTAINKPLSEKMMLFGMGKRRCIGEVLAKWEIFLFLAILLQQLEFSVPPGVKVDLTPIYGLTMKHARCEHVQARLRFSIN

Cytochrome P450 2C9 = Cytochrome P450 2C9 (Homo sapiens, UniProt P11712); assay: Inhibition of human liver CYP2C9; assay type: ADME
Cytochrome P450 2C19 = Cytochrome P450 2C19 (Homo sapiens, UniProt P33261); assay: Inhibition of human liver CYP2C19; assay type: ADME
Cytochrome P450 2D6 = Cytochrome P450 2D6 (Homo sapiens, UniProt P10635); assay: Inhibition of human liver CYP2D6; assay type: ADME
Cytochrome P450 3A4 = Cytochrome P450 3A4 (Homo sapiens, UniProt P08684); assay: Inhibition of human liver CYP3A4; assay type: ADME
Liver microsomes = assay: as §1; assay type: ADME, Microsome; conditions: microsomes, 10 µM

Chain of Cytochrome P450 2C9 (P11712 whole entry): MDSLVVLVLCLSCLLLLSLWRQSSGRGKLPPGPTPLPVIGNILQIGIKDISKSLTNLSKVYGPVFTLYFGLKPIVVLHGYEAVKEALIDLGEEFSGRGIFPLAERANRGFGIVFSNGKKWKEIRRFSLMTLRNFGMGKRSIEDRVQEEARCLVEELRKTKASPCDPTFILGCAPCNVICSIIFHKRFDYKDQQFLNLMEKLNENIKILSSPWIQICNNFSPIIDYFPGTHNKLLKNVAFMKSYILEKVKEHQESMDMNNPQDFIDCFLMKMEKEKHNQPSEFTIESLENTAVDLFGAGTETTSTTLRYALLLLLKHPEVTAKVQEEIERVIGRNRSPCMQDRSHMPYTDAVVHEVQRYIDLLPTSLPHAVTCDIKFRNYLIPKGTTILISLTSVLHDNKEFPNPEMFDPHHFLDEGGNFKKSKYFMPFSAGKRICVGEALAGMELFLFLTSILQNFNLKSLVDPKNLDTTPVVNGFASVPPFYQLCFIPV
Chain of Cytochrome P450 3A4 (P08684 whole entry): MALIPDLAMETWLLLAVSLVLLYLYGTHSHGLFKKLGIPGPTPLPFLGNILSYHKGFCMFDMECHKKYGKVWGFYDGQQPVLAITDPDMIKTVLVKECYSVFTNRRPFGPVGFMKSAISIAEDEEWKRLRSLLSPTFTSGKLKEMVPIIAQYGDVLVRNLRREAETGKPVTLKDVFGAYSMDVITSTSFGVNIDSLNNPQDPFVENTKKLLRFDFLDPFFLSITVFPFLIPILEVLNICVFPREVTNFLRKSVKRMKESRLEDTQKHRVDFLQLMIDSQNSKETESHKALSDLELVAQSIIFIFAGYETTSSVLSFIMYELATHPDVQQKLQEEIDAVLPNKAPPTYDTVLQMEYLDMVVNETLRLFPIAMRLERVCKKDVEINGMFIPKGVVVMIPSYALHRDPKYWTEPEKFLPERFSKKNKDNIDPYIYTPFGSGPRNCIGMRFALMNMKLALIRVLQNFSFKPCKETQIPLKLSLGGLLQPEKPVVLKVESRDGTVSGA
Chain of Cytochrome P450 2C19 (P33261 whole entry): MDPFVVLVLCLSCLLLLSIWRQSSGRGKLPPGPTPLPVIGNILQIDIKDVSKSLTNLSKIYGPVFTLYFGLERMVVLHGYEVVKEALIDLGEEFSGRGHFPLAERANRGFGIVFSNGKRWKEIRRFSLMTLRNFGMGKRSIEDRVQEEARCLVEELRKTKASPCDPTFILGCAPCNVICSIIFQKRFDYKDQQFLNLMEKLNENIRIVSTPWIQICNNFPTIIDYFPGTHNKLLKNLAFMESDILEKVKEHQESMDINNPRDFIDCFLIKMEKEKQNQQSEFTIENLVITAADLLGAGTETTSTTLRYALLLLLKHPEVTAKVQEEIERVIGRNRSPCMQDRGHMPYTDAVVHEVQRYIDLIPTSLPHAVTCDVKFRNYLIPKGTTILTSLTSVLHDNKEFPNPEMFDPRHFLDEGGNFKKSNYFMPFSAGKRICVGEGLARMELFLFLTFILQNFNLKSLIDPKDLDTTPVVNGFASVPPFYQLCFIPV
Chain of Cytochrome P450 2D6 (P10635 whole entry): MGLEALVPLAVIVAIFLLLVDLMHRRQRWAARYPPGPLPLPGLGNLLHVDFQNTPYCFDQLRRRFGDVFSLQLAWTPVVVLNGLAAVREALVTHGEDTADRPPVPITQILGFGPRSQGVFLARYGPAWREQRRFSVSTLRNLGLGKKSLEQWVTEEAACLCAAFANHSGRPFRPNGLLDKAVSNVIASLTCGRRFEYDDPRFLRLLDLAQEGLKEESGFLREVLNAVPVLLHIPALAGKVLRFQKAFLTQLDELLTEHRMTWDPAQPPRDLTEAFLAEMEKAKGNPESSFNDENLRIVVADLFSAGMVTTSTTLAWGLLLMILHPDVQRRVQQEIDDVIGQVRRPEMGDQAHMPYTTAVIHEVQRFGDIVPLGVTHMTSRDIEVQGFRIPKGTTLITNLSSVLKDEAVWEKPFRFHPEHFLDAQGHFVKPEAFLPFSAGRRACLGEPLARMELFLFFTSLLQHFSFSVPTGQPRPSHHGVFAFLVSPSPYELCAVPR

SMILES	IC50 (Hepatitis C virus [1])	EC50 (Hepatitis C virus [2])	further results
Cn1c(-c2ccoc2)c(C2CCCCC2)c2ccc(C(=O)N[C@@H](Cc3c[nH]c4ccc(O)cc34)c3cscn3)cc21	100 nM	50 nM	
CC(=O)COc1ccc(NC(=O)C(C)NC(=O)c2ccc3c(c2)nc(-c2ccoc2)n3C2CCCCC2)cc1 (racemic)	900 nM		
O=C(O)COc1ccc2[nH]cc(C[C@H](NC(=O)c3ccc4c(c3)nc(-c3ccoc3)n4C3CCCCC3)C(=O)O)c2c1	19 nM		
CC(NC(=O)c1ccc2c(c1)nc(-c1ccoc1)n2C1CCCCC1)C(=O)Nc1ccc(-c2ccc(C(=O)O)o2)cc1 (racemic)	450 nM	28000 nM	
O=C(O)/C=C/c1ccc(NC(=O)CNC(=O)c2ccc3c(c2)nc(-c2ccoc2)n3C2CCCCC2)cc1	280 nM	41000 nM	
C[C@@H](NC(=O)c1ccc2c(c1)nc(-c1ccoc1)n2C1CCCCC1)C(=O)Nc1ccc2[nH]c(C(=O)O)cc2c1	60 nM	> 40000 nM	
CC[C@@H](NC(=O)c1ccc2c(c1)nc(-c1ccoc1)n2C1CCCCC1)C(=O)Nc1ccc(/C=C/C(=O)O)cc1	400 nM	6500 nM	
CC(NC(=O)c1ccc2c(c1)nc(-c1ccoc1)n2C1CCCCC1)C(=O)Nc1ccc(/C=C/C(=O)O)cc1 (racemic)	340 nM	13000 nM	
C[C@@H](NC(=O)c1ccc2c(c1)nc(-c1ccoc1)n2C1CCCCC1)C(=O)Nc1ccc(/C=C/C(=O)O)cc1	130 nM	6900 nM	Activity (Enterovirus C): inactive; Activity (Bos taurus): inactive; logD [3]: 2.2; solubility [4]: 171 µg/mL (≈ 325 µM); half-life at 10 µM [5]: 44 min; IC50 (Cytochrome P450 1A2): > 30000 nM; IC50 (Cytochrome P450 2C9): > 30000 nM; IC50 (Cytochrome P450 2C19): > 30000 nM; IC50 (Cytochrome P450 2D6): > 30000 nM; IC50 (Cytochrome P450 3A4): 12300 nM
CC(NC(=O)c1ccc2c(c1)nc(-c1ccoc1)n2C1CCCCC1)C(=O)Nc1cccc(C(=O)O)c1 (racemic)	1610 nM		
CC(NC(=O)c1ccc2c(c1)nc(-c1ccoc1)n2C1CCCCC1)C(=O)Nc1ccc(CC(=O)O)cc1 (racemic)	1520 nM		
CC(NC(=O)c1ccc2c(c1)nc(-c1ccoc1)n2C1CCCCC1)C(=O)Nc1ccc(C(=O)O)cc1 (racemic)	390 nM	30000 nM	
CC(NC(=O)c1ccc2c(c1)nc(-c1ccoc1)n2C1CCCCC1)C(=O)Nc1cccc(/C=C/C(=O)O)c1 (racemic)	900 nM		
O=C(N[C@@H](Cc1c[nH]c2ccc(O)cc12)c1cscn1)c1ccc2c(c1)nc(-c1ccoc1)n2C1CCCCC1	300 nM	1700 nM	logD [3]: 3.8; solubility [4]: < 0.07 µg/mL; t1/2 (Liver microsomes): 26 min; IC50 (Cytochrome P450 1A2): > 30000 nM; IC50 (Cytochrome P450 2C9): 2300 nM; IC50 (Cytochrome P450 2C19): 2400 nM; IC50 (Cytochrome P450 2D6): 4000 nM; IC50 (Cytochrome P450 3A4): 400 nM
C[C@@H](NC(=O)c1ccc2c(c1)nc(-c1ccoc1)n2C1CCCCC1)C(=O)Nc1ccc2oc(C(=O)O)cc2c1	90 nM	> 42000 nM	
C[C@H](NC(=O)c1ccc2c(c1)nc(-c1ccoc1)n2C1CCCCC1)C(=O)Nc1ccc(/C=C/C(=O)O)cc1	360 nM	25000 nM	
